According to PubChem BioAssay AID1963986 (Molecular Pharmacology Branch, DTP, NCI, 2024):
Values belong to the molecule of their own block, whether it stands above or below them.

Tested on: 171881-019-R-J1-PDC tumor spheroid viability
Test: Anticancer human tumor 171881-019-R-J1-PDC patient-derived invasive breast carcinoma cell line growth inhibition [PI3K]
Conditions: spheroids with HUVEC and MSC; for IC50: curve of first compound; for viability, T/C: stronger effect = lower value
Summary of the method: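 Multi-cell spheroids combine tumor cells with HUVEC and human MSCs, treated with targeted agents alone or with inavolisib, alpelisib, duvelisib or copanlisib. Concentrations fall in half-log steps from at or near clinical Cmax, or from 10 microM where Cmax is unknown; viability read-out.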

[1] = second compound 0.0316 µM, first compound 0.0316 µM
[2] = second compound 0.0316 µM, first compound 0.1 µM
[3] = second compound 0.1 µM, first compound 0.0316 µM
[4] = second compound 0.1 µM, first compound 0.1 µM
[5] = second compound 0.316 µM, first compound 0.0316 µM
[6] = second compound 0.316 µM, first compound 0.1 µM
[7] = second compound 1 µM, first compound 0.0316 µM
[8] = second compound 1 µM, first compound 0.1 µM
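Further: spheroids exposed to compound for 7 days before viability read.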
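Wherever viability, T/C is given: 100% = DMSO vehicle-treated spheroids.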

IC50 (second compound 0.00316 µM): > 100 nM | IC50 (second compound 0.01 µM): > 100 nM | IC50 (second compound 0.0316 µM): > 100 nM | IC50 (second compound 0.1 µM): < 0.316 nM | IC50 (second compound 0.316 µM): < 0.316 nM | IC50 (second compound 1 µM): < 0.316 nM
Structure (SMILES): CC(=O)c1c(C)c2cnc(Nc3ccc(N4CCNCC4)cn3)nc2n(C2CCCC2)c1=O + CC(Nc1ccc2c(c1)OCCn1cc(N3C(=O)OCC3C(F)F)nc1-2)C(N)=O
viability, T/C (second compound 0.00316 µM, first compound 0.000316 µM): 85.7% | viability, T/C (second compound 0.00316 µM, first compound 0.001 µM): 85.3% | viability, T/C (second compound 0.00316 µM, first compound 0.00316 µM): 94.5% | viability, T/C (second compound 0.00316 µM, first compound 0.01 µM): 95.2% | viability, T/C (second compound 0.00316 µM, first compound 0.0316 µM): 100% | viability, T/C (second compound 0.00316 µM, first compound 0.1 µM): 86.7% | viability, T/C (second compound 0.01 µM, first compound 0.000316 µM): 74.2% | viability, T/C (second compound 0.01 µM, first compound 0.001 µM): 82.3% | viability, T/C (second compound 0.01 µM, first compound 0.00316 µM): 78.5% | viability, T/C (second compound 0.01 µM, first compound 0.01 µM): 85.9% | viability, T/C (second compound 0.01 µM, first compound 0.0316 µM): 89.2% | viability, T/C (second compound 0.01 µM, first compound 0.1 µM): 73% | viability, T/C (second compound 0.0316 µM, first compound 0.000316 µM): 50.3% | viability, T/C (second compound 0.0316 µM, first compound 0.001 µM): 58.7% | viability, T/C (second compound 0.0316 µM, first compound 0.00316 µM): 53.9% | viability, T/C (second compound 0.0316 µM, first compound 0.01 µM): 49.1% | viability, T/C [1]: 64.5% | viability, T/C [2]: 58.6% | viability, T/C (second compound 0.1 µM, first compound 0.000316 µM): 40.4% | viability, T/C (second compound 0.1 µM, first compound 0.001 µM): 42.6% | viability, T/C (second compound 0.1 µM, first compound 0.00316 µM): 42% | viability, T/C (second compound 0.1 µM, first compound 0.01 µM): 44.3% | viability, T/C [3]: 47.7% | viability, T/C [4]: 42.1% | viability, T/C (second compound 0.316 µM, first compound 0.000316 µM): 26.7% | viability, T/C (second compound 0.316 µM, first compound 0.001 µM): 27% | viability, T/C (second compound 0.316 µM, first compound 0.00316 µM): 28% | viability, T/C (second compound 0.316 µM, first compound 0.01 µM): 28% | viability, T/C [5]: 30.8% | viability, T/C [6]: 29% | viability, T/C (second compound 1 µM, first compound 0.000316 µM): 20.4% | viability, T/C (second compound 1 µM, first compound 0.001 µM): 20.4% | viability, T/C (second compound 1 µM, first compound 0.00316 µM): 24.1% | viability, T/C (second compound 1 µM, first compound 0.01 µM): 24.2% | viability, T/C [7]: 27.8% | viability, T/C [8]: 25.9%

IC50 (second compound 0.0316 µM): > 10000 nM | IC50 (second compound 0.1 µM): > 10000 nM | IC50 (second compound 0.316 µM): 4660 nM | IC50 (second compound 1 µM): < 31.6 nM | IC50 (second compound 3.16 µM): < 31.6 nM | IC50 (second compound 10 µM): < 31.6 nM
Structure (SMILES): CNC(=O)c1ccc(N2C(=S)N(c3ccc(C#N)c(C(F)(F)F)c3)C(=O)C2(C)C)cc1F + Cc1nc(NC(=O)N2CCCC2C(N)=O)sc1-c1ccnc(C(C)(C)C(F)(F)F)c1
viability, T/C [1]: 90.4% | viability, T/C [2]: 81.5% | viability, T/C (second compound 0.0316 µM, first compound 0.316 µM): 84.4% | viability, T/C (second compound 0.0316 µM, first compound 1 µM): 87.7% | viability, T/C (second compound 0.0316 µM, first compound 3.16 µM): 86% | viability, T/C (second compound 0.0316 µM, first compound 10 µM): 69.7% | viability, T/C [3]: 79% | viability, T/C [4]: 77% | viability, T/C (second compound 0.1 µM, first compound 0.316 µM): 82.9% | viability, T/C (second compound 0.1 µM, first compound 1 µM): 66.4% | viability, T/C (second compound 0.1 µM, first compound 3.16 µM): 74.6% | viability, T/C (second compound 0.1 µM, first compound 10 µM): 66.1% | viability, T/C [5]: 58.6% | viability, T/C [6]: 50.2% | viability, T/C (second compound 0.316 µM, first compound 0.316 µM): 50.3% | viability, T/C (second compound 0.316 µM, first compound 1 µM): 52.5% | viability, T/C (second compound 0.316 µM, first compound 3.16 µM): 57.2% | viability, T/C (second compound 0.316 µM, first compound 10 µM): 45.1% | viability, T/C [7]: 31.2% | viability, T/C [8]: 31.1% | viability, T/C (second compound 1 µM, first compound 0.316 µM): 31.8% | viability, T/C (second compound 1 µM, first compound 1 µM): 30.9% | viability, T/C (second compound 1 µM, first compound 3.16 µM): 32.7% | viability, T/C (second compound 1 µM, first compound 10 µM): 27.7% | viability, T/C (second compound 3.16 µM, first compound 0.0316 µM): 13.2% | viability, T/C (second compound 3.16 µM, first compound 0.1 µM): 12.7% | viability, T/C (second compound 3.16 µM, first compound 0.316 µM): 13.1% | viability, T/C (second compound 3.16 µM, first compound 1 µM): 12.6% | viability, T/C (second compound 3.16 µM, first compound 3.16 µM): 12.5% | viability, T/C (second compound 3.16 µM, first compound 10 µM): 11.1% | viability, T/C (second compound 10 µM, first compound 0.0316 µM): 3.32% | viability, T/C (second compound 10 µM, first compound 0.1 µM): 3.53% | viability, T/C (second compound 10 µM, first compound 0.316 µM): 3.59% | viability, T/C (second compound 10 µM, first compound 1 µM): 3.51% | viability, T/C (second compound 10 µM, first compound 3.16 µM): 3.82% | viability, T/C (second compound 10 µM, first compound 10 µM): 3.48%
